Measurements as given in the NIST ThermoML archive (doi:10.1016/j.jct.2007.05.011).

Experiment: xn = mol fraction of the nth substance listed
Details: 101 kPa, Liquid; for mass density: Vibrating tube method

NCCO.O=CO [2-hydroxyethylammonium formate] + CCO
Details | mass density [kg/m3] | speed of sound [m/s]
288.15 K, x2 = 0 | 1183.57 | 1733.9
288.15 K, x2 = 0.058 | 1172.99 | 1741.5
288.15 K, x2 = 0.098 | 1161.05 | 1723
288.15 K, x2 = 0.193 | 1135.72 | 1681.5
288.15 K, x2 = 0.296 | 1110.04 | 1639
288.15 K, x2 = 0.399 | 1079.51 | 1587.5
288.15 K, x2 = 0.5 | 1044.58 | 1529.7
288.15 K, x2 = 0.598 | 1006.57 | 1468.7
288.15 K, x2 = 0.701 | 963.374 | 1402.4
288.15 K, x2 = 0.799 | 914.502 | 1333.5
288.15 K, x2 = 0.9 | 859.222 | 1261.8
288.15 K, x2 = 0.95 | 828.585 | 1223.4
290.65 K, x2 = 0 | 1181.81 | 1727.4
290.65 K, x2 = 0.058 | 1171.33 | 1736.2
290.65 K, x2 = 0.098 | 1159.38 | 1717.6
290.65 K, x2 = 0.193 | 1134.02 | 1675.9
290.65 K, x2 = 0.296 | 1108.32 | 1633.2
290.65 K, x2 = 0.399 | 1077.76 | 1581.4
290.65 K, x2 = 0.5 | 1042.78 | 1523.3
290.65 K, x2 = 0.598 | 1004.72 | 1461.9
290.65 K, x2 = 0.701 | 961.474 | 1395.3
290.65 K, x2 = 0.799 | 912.536 | 1326
290.65 K, x2 = 0.9 | 857.183 | 1253.7
290.65 K, x2 = 0.95 | 826.503 | 1215
293.15 K, x2 = 0 | 1180.04 | 1721.3
293.15 K, x2 = 0.058 | 1169.68 | 1730.9
293.15 K, x2 = 0.098 | 1157.72 | 1712.2
293.15 K, x2 = 0.193 | 1132.33 | 1670.3
293.15 K, x2 = 0.296 | 1106.6 | 1627.4
293.15 K, x2 = 0.399 | 1076 | 1575.3
293.15 K, x2 = 0.5 | 1040.98 | 1517
293.15 K, x2 = 0.598 | 1002.88 | 1455.1
293.15 K, x2 = 0.701 | 959.571 | 1388.2
293.15 K, x2 = 0.799 | 910.569 | 1318.5
293.15 K, x2 = 0.9 | 855.141 | 1245.7
293.15 K, x2 = 0.95 | 824.416 | 1206.8
295.65 K, x2 = 0 | 1178.27 | 1715.1
295.65 K, x2 = 0.058 | 1168.03 | 1725.6
295.65 K, x2 = 0.098 | 1156.05 | 1706.8
295.65 K, x2 = 0.193 | 1130.64 | 1664.8
295.65 K, x2 = 0.296 | 1104.87 | 1621.7
295.65 K, x2 = 0.399 | 1074.24 | 1569.2
295.65 K, x2 = 0.5 | 1039.18 | 1510.6
295.65 K, x2 = 0.598 | 1001.03 | 1448.4
295.65 K, x2 = 0.701 | 957.67 | 1381.1
295.65 K, x2 = 0.799 | 908.602 | 1311
295.65 K, x2 = 0.9 | 853.093 | 1237.8
295.65 K, x2 = 0.95 | 822.326 | 1198.5
298.15 K, x2 = 0 | 1176.49 | 1709
298.15 K, x2 = 0.058 | 1166.37 | 1720.4
298.15 K, x2 = 0.098 | 1154.38 | 1701.5
298.15 K, x2 = 0.193 | 1128.94 | 1659.3
298.15 K, x2 = 0.296 | 1103.15 | 1615.9
298.15 K, x2 = 0.399 | 1072.49 | 1563.2
298.15 K, x2 = 0.5 | 1037.38 | 1504.3
298.15 K, x2 = 0.598 | 999.182 | 1441.7
298.15 K, x2 = 0.701 | 955.767 | 1374.1
298.15 K, x2 = 0.799 | 906.63 | 1303.6
298.15 K, x2 = 0.9 | 851.045 | 1229.8
298.15 K, x2 = 0.95 | 820.231 | 1190.2
300.65 K, x2 = 0 | 1174.71 | 1702.9
300.65 K, x2 = 0.058 | 1164.71 | 1715.2
300.65 K, x2 = 0.098 | 1152.72 | 1696.1
300.65 K, x2 = 0.193 | 1127.25 | 1653.7
300.65 K, x2 = 0.296 | 1101.44 | 1610.2
300.65 K, x2 = 0.399 | 1070.73 | 1557.2
300.65 K, x2 = 0.5 | 1035.58 | 1498
300.65 K, x2 = 0.598 | 997.335 | 1435.1
300.65 K, x2 = 0.701 | 953.861 | 1367
300.65 K, x2 = 0.799 | 904.657 | 1296.1
300.65 K, x2 = 0.9 | 848.99 | 1221.9
300.65 K, x2 = 0.95 | 818.13 | 1182
303.15 K, x2 = 0 | 1172.94 | 1696.8
303.15 K, x2 = 0.058 | 1163.06 | 1709.9
303.15 K, x2 = 0.098 | 1151.05 | 1690.8
303.15 K, x2 = 0.193 | 1125.56 | 1648.2
303.15 K, x2 = 0.296 | 1099.72 | 1604.4
303.15 K, x2 = 0.399 | 1068.98 | 1551.2
303.15 K, x2 = 0.5 | 1033.79 | 1491.7
303.15 K, x2 = 0.598 | 995.485 | 1428.4
303.15 K, x2 = 0.701 | 951.952 | 1360
303.15 K, x2 = 0.799 | 902.677 | 1288.7
303.15 K, x2 = 0.9 | 846.93 | 1214
303.15 K, x2 = 0.95 | 816.023 | 1173.8
305.65 K, x2 = 0 | 1171.16 | –
305.65 K, x2 = 0.058 | 1161.41 | –
305.65 K, x2 = 0.098 | 1149.39 | –
305.65 K, x2 = 0.193 | 1123.87 | –
305.65 K, x2 = 0.296 | 1098 | –
305.65 K, x2 = 0.399 | 1067.22 | –
305.65 K, x2 = 0.5 | 1031.98 | –
305.65 K, x2 = 0.598 | 993.634 | –
305.65 K, x2 = 0.701 | 950.042 | –
305.65 K, x2 = 0.799 | 900.694 | –
305.65 K, x2 = 0.9 | 844.863 | –
305.65 K, x2 = 0.95 | 813.907 | –
